Data set [1] deals with T1, Catechol-O-Methyl-Transferase (COMT) (Rattus norvegicus, UniProt P22734).
T1 construct: Man inkubiert Rattenleber-Homogenate in Gegenwart eines geeigneten Substrates; from tissue; host or cells: rat liver homogenate
T1 sequence (P22734 1-264): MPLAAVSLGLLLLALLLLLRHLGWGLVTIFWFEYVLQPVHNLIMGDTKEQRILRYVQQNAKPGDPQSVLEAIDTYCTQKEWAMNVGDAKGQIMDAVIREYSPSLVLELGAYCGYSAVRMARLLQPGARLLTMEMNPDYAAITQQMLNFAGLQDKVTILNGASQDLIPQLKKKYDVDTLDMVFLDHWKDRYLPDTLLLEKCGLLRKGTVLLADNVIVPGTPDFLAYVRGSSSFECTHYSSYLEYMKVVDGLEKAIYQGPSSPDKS
Put plainly: COMT inhibition in rat liver homogenates. Format: biochemical, Ratten. The text has this:
Diese Wirkung kann wie folgt quantitativ erfasst werden: Man inkubiert Rattenleber-Homogenate in Gegenwart eines geeigneten Substrates wie in J. Neurochem. […] In einer zweiten Versuchsreihe wird die Inkubation in Gegenwart einer Verbindung der Formel Ia durchgeführt. Aus der Differenz der ermittelten COMT-Aktivitäten lässt sich dann die IC₅₀ berechnen. Die IC₅₀ wird in nMol/l angegeben und ist diejenige Konzentration in der Inkubationsmischung, welche notwendig ist, um die COMT-Aktivität um 50% herabzusetzen.

The nature of data set [2]: Acute toxicity after a single oral administration to mice. As to conditions: mouse, in vivo, p.o., read-out: DL₅₀.

The IC50 is the concentration needed to halve the response being measured. Higher therefore signals weaker potency in that assay. As to `CCCCOC(=O)c1cc(O)c(O)c([N+](=O)[O-])c1` [3,4-Dihydroxy-5-nitrobenzoesäure-n-butylester], the IC50 in data set [1] was determined as 20 nM. The LD50 in data set [2] was 312 to 625 mg/kg.
`O=C(c1ccncc1)c1cc(O)c(O)c([N+](=O)[O-])c1` [3,4-Dihydroxy-5-nitrophenyl-4-pyridylketon] registered an IC50 in data set [1] of 67 nM. For the same compound, in data set [2], the LD50 was in the range of 1000 to 2000 mg/kg.
Regarding `O=[N+]([O-])c1cc(O)c(O)c([N+](=O)[O-])c1` [3,5-Dinitropyrocatechol], the LD50 in data set [2] was 500 to 1000 mg/kg.
`CCOC(=O)C(=O)c1cc(O)c(O)c([N+](=O)[O-])c1` [3,4-Dihydroxy-5-nitrophenylglyoxylsäureäthylester] returned an IC50 in data set [1] of 48.1 nM. In data set [2], the LD50 lay within 1250 to 2500 mg/kg.
In data set [1], `O=C(c1cc(O)c(O)c([N+](=O)[O-])c1)c1ccccn1` [3,4-Dihydroxy-5-nitrophenyl-2-pyridylketon] had an IC50 of 53.4 nM. Moreover, the LD50 in data set [2] fell in the range of 1250 to 2500 mg/kg.
`O=C(c1ccccc1)c1cc(O)c(O)c([N+](=O)[O-])c1` [3,4-Dihydroxy-5-nitrobenzophenon] came in with an IC50 in data set [1] of 48 nM. The LD50 in data set [2] lay within 500 to 1000 mg/kg.
For `O=C(c1cccnc1)c1cc(O)c(O)c([N+](=O)[O-])c1` [3,4-Dihydroxy-5-nitrophenyl-3-pyridylketon], in data set [1], it took 47 nM to reach half-maximal inhibition (IC50). Further, in data set [2], the LD50 is 1000 to 2000 mg/kg.
With `O=C(c1cc(O)c(O)c([N+](=O)[O-])c1)c1ccccc1F` [2'-Fluor-3,4-dihydroxy-5-nitrobenzophenon], 42 nM corresponded to half-maximal inhibition in data set [1] (IC50). Further, the LD50 in data set [2] lay within 312 to 625 mg/kg.
As to `CCCCOC(=O)C=Cc1cc(O)c(O)c([N+](=O)[O-])c1` [3,4-Dihydroxy-5-nitrozimtsäure-n-butylester], in data set [1], the IC50 worked out at 25.9 nM. Also, in data set [2], the LD50 fell in the range of 2500 to 5000 mg/kg.

Source of the values: patent EP0237929B1, “3,5-Disubstituted pyrocatechol derivatives” (F. HOFFMANN-LA ROCHE AG, priority 1986, dated 1987).
